Measured values published in ChEMBL document CHEMBL1817578, “2-({6-[(3R)-3-amino-3-methylpiperidine-1-yl]-1,3-dimethyl-2,4-dioxo-1,2,3,4-tetrahydro-5H-pyrrolo[3,2-d]pyrimidine-5-yl}methyl)-4-fluorobenzonitrile (DSR-12727): a potent, orally active dipeptidyl peptidase IV inhibitor without mechanism-based inactivation of CYP3A” (Bioorg Med Chem, 2011).
pIC50: −log10 of the molar value.

Legend:
[1] = molecular target: Dipeptidyl peptidase 4 (Homo sapiens, UniProt P27487); test: Inhibition of DPP4 in human plasma assessed as formation of 7-amino-4-methylcoumarin from glycyl-L-proline 4-methylcoumaryl-7-amide by fluorescence assay
Chain of Dipeptidyl peptidase 4 (P27487 whole entry): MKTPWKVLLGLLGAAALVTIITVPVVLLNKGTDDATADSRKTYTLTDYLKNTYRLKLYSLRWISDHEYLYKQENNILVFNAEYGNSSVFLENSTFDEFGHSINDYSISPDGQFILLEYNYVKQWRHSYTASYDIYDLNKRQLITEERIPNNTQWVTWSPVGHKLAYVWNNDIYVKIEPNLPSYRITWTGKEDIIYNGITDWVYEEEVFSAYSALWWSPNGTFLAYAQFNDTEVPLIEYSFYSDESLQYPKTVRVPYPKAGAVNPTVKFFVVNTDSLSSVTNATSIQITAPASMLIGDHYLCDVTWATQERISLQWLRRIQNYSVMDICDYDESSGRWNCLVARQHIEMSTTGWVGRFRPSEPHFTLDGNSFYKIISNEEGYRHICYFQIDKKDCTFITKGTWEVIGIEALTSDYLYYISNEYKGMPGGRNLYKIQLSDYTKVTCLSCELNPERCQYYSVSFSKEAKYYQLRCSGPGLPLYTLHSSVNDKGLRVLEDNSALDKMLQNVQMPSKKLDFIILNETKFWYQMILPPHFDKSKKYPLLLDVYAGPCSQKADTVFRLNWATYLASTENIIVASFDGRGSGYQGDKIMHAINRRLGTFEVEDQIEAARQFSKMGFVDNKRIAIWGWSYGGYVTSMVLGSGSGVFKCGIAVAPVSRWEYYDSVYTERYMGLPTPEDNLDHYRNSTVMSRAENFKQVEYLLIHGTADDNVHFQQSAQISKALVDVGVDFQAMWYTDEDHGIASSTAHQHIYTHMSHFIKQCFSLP

[2] = molecular target: T1, Cytochrome P450 1A2 (Homo sapiens, UniProt P05177); test: Inhibition of CYP1A2; format: ADME
T1 sequence (P05177 whole entry): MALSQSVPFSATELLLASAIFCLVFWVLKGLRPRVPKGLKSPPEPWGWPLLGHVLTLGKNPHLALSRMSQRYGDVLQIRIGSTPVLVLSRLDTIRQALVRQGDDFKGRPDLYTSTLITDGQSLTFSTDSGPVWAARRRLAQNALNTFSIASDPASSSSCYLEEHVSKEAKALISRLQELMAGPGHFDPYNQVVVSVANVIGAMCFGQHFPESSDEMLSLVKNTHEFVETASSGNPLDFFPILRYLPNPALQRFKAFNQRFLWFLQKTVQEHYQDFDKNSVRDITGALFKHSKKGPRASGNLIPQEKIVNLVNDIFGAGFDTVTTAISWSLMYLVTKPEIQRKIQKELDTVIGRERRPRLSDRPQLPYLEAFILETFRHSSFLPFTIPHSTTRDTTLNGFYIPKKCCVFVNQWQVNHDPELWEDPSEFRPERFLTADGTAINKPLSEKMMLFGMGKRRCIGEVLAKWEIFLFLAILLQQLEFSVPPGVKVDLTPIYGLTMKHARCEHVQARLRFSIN

[3] = molecular target: Cytochrome P450 2D6 (Homo sapiens, UniProt P10635); test: Inhibition of CYP2D6; format: ADME
Chain of Cytochrome P450 2D6 (P10635 whole entry): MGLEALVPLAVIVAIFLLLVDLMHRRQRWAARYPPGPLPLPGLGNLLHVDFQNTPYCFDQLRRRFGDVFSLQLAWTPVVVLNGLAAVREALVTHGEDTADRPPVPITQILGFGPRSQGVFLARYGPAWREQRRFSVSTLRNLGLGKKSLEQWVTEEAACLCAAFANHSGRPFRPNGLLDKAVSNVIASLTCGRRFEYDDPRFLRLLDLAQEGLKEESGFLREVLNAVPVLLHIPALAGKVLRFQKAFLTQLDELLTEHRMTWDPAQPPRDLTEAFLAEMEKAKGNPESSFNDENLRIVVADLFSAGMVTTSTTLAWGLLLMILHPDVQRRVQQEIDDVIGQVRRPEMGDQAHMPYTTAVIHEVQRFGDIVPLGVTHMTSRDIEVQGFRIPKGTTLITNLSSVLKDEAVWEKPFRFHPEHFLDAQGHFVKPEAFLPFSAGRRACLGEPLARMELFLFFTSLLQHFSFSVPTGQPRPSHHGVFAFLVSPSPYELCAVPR

[4] = molecular target: Cytochrome P450 3A4 (Homo sapiens, UniProt P08684); test: Inhibition of CYP3A4; format: ADME
Chain of Cytochrome P450 3A4 (P08684 whole entry): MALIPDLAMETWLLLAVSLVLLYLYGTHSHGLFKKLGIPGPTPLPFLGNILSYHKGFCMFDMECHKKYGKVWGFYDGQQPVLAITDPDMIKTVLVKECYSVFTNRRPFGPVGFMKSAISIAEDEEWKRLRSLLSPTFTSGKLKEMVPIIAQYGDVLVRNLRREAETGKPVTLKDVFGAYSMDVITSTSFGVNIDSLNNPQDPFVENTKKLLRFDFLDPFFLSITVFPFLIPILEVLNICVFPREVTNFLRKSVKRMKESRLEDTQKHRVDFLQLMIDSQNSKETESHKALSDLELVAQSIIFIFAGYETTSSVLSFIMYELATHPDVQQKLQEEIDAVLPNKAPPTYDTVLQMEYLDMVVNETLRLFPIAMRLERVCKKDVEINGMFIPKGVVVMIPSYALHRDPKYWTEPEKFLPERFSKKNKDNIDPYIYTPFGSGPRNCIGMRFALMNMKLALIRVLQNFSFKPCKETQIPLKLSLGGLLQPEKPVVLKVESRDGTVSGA

Compound | pIC50 [1] | pIC50 [2] | pIC50 [3] | pIC50 [4]
CC[C@]1(N)CCCN(c2cc3c(c(=O)n(C)c(=O)n3C)n2Cc2cc(F)ccc2C#N)C1 | < 6.00 |  |  | 
CC[C@@]1(N)CCCN(c2cc3c(c(=O)n(C)c(=O)n3C)n2Cc2cc(F)ccc2C#N)C1 | 7.59 |  |  | 
Cn1c(=O)c2c(cc(N3CCC[C@@H](N)C3)n2Cc2cc(F)ccc2C#N)n(C)c1=O | 9.47 | 4.83 | 5.12 | 5.80
